#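 Assay format: 96-well plates, 48-hour exposure. TGI: concentration producing complete growth inhibition.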
# Columns and labels:
# Experiment in all cases: growth of human tumour cells (NCI), 48 h
# CAKI-1 renal = test system: CAKI-1 renal
# HCT-116 colon = test system: HCT-116 colon
# HOP-62 NSCLC = test system: HOP-62 NSCLC
# HOP-92 NSCLC = test system: HOP-92 NSCLC
# HT29 colon = test system: HT29 colon
# KM12 colon = test system: KM12 colon
# MALME-3M melanoma = test system: MALME-3M melanoma
# MDA-MB-231 breast = test system: MDA-MB-231 breast
# NCI-H23 lung = test system: NCI-H23 lung
# NCI-H522 lung = test system: NCI-H522 lung
# NCI/ADR-RES ovarian = test system: NCI/ADR-RES ovarian
# RPMI-8226 leukemia = test system: RPMI-8226 leukemia
# SK-MEL-2 melanoma = test system: SK-MEL-2 melanoma
# SK-OV-3 ovarian = test system: SK-OV-3 ovarian
# SNB-19 CNS = test system: SNB-19 CNS
# TK-10 renal = test system: TK-10 renal
# U251 CNS = test system: U251 CNS
# HCC-2998 colon = test system: HCC-2998 colon
# MDA-N = test system: MDA-N
SMILES,TGI (CAKI-1 renal),TGI (HCT-116 colon),TGI (HOP-62 NSCLC),TGI (HOP-92 NSCLC),TGI (HT29 colon),TGI (KM12 colon),TGI (MALME-3M melanoma),TGI (MDA-MB-231 breast),TGI (NCI-H23 lung),TGI (NCI-H522 lung),TGI (NCI/ADR-RES ovarian),TGI (RPMI-8226 leukemia),TGI (SK-MEL-2 melanoma),TGI (SK-OV-3 ovarian),TGI (SNB-19 CNS),TGI (TK-10 renal),TGI (U251 CNS),TGI (HCC-2998 colon),TGI (MDA-N)
COc1cccc(/C=C2\CCCc3ccccc3C2=O)c1,> 100 µM,27.9 µM,31 µM,43.2 µM,52.3 µM,38.8 µM,43 µM,32.5 µM,32.6 µM,40.3 µM,53.3 µM,64.1 µM,27.4 µM,79.3 µM,26.8 µM,82.6 µM,29.3 µM,–,–
COc1ccc(P2(=S)Oc3ccccc3-c3ccccc3O2)cc1,–,> 38.7 µM,> 100 µM,85.3 µM,–,> 100 µM,> 100 µM,> 100 µM,> 100 µM,–,> 100 µM,–,> 100 µM,–,> 100 µM,> 100 µM,> 100 µM,9.56 µM,–
Oc1c(Cl)c(Cl)c(O)c(CCNc2ccc3ncccc3c2)c1Cl,25.4 µM,41.9 µM,27.7 µM,> 100 µM,88.4 µM,15.9 µM,35.3 µM,–,25.9 µM,4.29 µM,33.9 µM,–,22.8 µM,27.6 µM,32.3 µM,36.7 µM,36.8 µM,28 µM,–
CC[C@H](Nc1c(O)c2c(c(O)c1Cl)C(=O)C=CC2=O)C(=O)OC,> 10 µM,5.89 µM,> 10 µM,> 10 µM,> 10 µM,> 10 µM,> 10 µM,9.76 µM,> 10 µM,> 10 µM,> 10 µM,> 10 µM,> 10 µM,> 10 µM,> 10 µM,> 10 µM,> 10 µM,–,> 10 µM
CCC(C(=O)C(=O)C(CC)P1(=O)OC(C)(C)CN1C(C)(C)C)P1(=O)OC(C)(C)CN1C(C)(C)C (centres undefined),> 100 µM,> 100 µM,> 100 µM,> 100 µM,> 100 µM,> 100 µM,–,> 100 µM,> 100 µM,> 100 µM,> 100 µM,> 100 µM,> 100 µM,> 100 µM,> 100 µM,> 100 µM,> 100 µM,> 100 µM,–
Cc1cc(C)c(S(=O)(=O)N2CCCN(S(=O)(=O)c3c(C)cc(C)cc3C)OCCCO2)c(C)c1,> 100 µM,> 100 µM,> 100 µM,> 100 µM,> 100 µM,> 100 µM,> 100 µM,> 100 µM,> 100 µM,> 100 µM,> 100 µM,–,> 100 µM,> 100 µM,> 100 µM,> 100 µM,> 100 µM,–,> 100 µM
CCCSc1ccc2[nH]c(/N=C/c3ccccc3)cc2c1,> 100 µM,39.8 µM,–,76.9 µM,> 100 µM,–,55.7 µM,–,> 100 µM,46.2 µM,47.9 µM,48.3 µM,32.2 µM,–,–,–,–,–,62.6 µM
C/C(=N\n1c(Cc2ccccc2)n[nH]c1=O)c1ccccc1,> 100 µM,> 100 µM,–,> 100 µM,> 100 µM,> 100 µM,> 100 µM,> 100 µM,> 100 µM,> 100 µM,> 100 µM,> 100 µM,> 100 µM,–,> 100 µM,> 100 µM,> 100 µM,–,> 100 µM
Nc1c2ccccc2nc2ccc3c(=O)cc(-c4ccccc4)oc3c12,2.63 µM,0.306 µM,–,2.59 µM,1.86 µM,2.16 µM,3.23 µM,2.52 µM,3.52 µM,–,–,0.697 µM,3.65 µM,3.48 µM,–,3.52 µM,1.46 µM,1.9 µM,2.13 µM
O=S(CC1(O)CCCCC1)c1ccccc1 (centres undefined),> 100 µM,> 100 µM,> 100 µM,–,> 100 µM,> 100 µM,> 100 µM,> 100 µM,> 100 µM,> 100 µM,> 100 µM,2.32 µM,> 100 µM,> 100 µM,> 100 µM,> 100 µM,> 100 µM,> 100 µM,–
Cc1n[nH]c(=O)n1/N=C/c1ccc(F)cc1,> 100 µM,> 100 µM,> 100 µM,> 100 µM,–,> 100 µM,–,–,> 100 µM,> 100 µM,> 100 µM,> 100 µM,–,> 100 µM,> 100 µM,–,–,> 100 µM,> 100 µM
CC(=O)[C@@H]1C/C(=C\OCc2ccccc2)O[C@H]1C,> 100 µM,> 100 µM,> 100 µM,> 100 µM,> 100 µM,> 100 µM,> 100 µM,> 100 µM,> 100 µM,> 100 µM,> 100 µM,> 100 µM,–,> 100 µM,> 100 µM,> 100 µM,> 100 µM,–,–
Cc1c(CCN2CCOCC2)c(N2CCOCC2)n2c(nc3ccccc32)c1C#N,> 10 µM,> 10 µM,> 10 µM,> 10 µM,> 10 µM,> 10 µM,> 10 µM,> 10 µM,> 10 µM,–,> 10 µM,> 10 µM,–,> 10 µM,> 10 µM,> 10 µM,> 10 µM,–,> 10 µM
CCOP(=O)(OCC)/C(=C/NC(=S)c1ccncc1)C(=O)OC,> 100 µM,> 100 µM,> 100 µM,> 100 µM,> 100 µM,> 100 µM,–,> 100 µM,> 100 µM,> 100 µM,> 100 µM,> 100 µM,> 100 µM,> 100 µM,> 100 µM,> 100 µM,> 100 µM,> 100 µM,> 100 µM
Nc1nc2c(c(=O)[nH]1)C(c1ccccc1)CC(=O)N2 (centres undefined),–,> 100 µM,> 100 µM,–,> 100 µM,> 100 µM,> 100 µM,> 100 µM,> 100 µM,–,> 100 µM,> 100 µM,> 100 µM,> 100 µM,> 100 µM,> 100 µM,> 100 µM,> 100 µM,> 100 µM
COc1cc(/C=C2\N=C(c3ccccc3)N(c3nc4cc(C)c(C)cc4s3)C2=O)ccc1O,> 100 µM,61.8 µM,> 100 µM,> 100 µM,99.1 µM,> 100 µM,–,> 100 µM,–,–,> 100 µM,> 100 µM,> 100 µM,> 100 µM,> 100 µM,> 100 µM,> 100 µM,69.9 µM,37.7 µM
CCCCCCc1ccc(C(=O)NO)cc1,84.3 µM,> 100 µM,> 100 µM,> 100 µM,> 100 µM,> 100 µM,–,> 100 µM,> 100 µM,80.4 µM,51.9 µM,56.8 µM,> 100 µM,> 100 µM,> 100 µM,> 100 µM,> 100 µM,> 100 µM,> 100 µM
COc1cccc(C2c3cc4c(cc3OC(N3CCOCC3)C2C)OCO4)c1OC (centres undefined),5.36 µM,15.7 µM,31.6 µM,–,15.8 µM,36.2 µM,–,–,> 100 µM,34.3 µM,29.7 µM,24.1 µM,25.5 µM,–,24.2 µM,> 100 µM,–,22.8 µM,46.9 µM
C=CCN1C(=O)/C(=C\c2cc(C(C)(C)C)c(O)c(C(C)(C)C)c2)NC1=S,83.3 µM,35.4 µM,51.5 µM,> 100 µM,80.7 µM,72.6 µM,> 100 µM,34.9 µM,94 µM,27.8 µM,> 100 µM,> 100 µM,31.8 µM,> 100 µM,> 100 µM,73.9 µM,32.7 µM,–,> 100 µM
CC12CCC(C(Nc3cc(C(F)(F)F)cc(C(F)(F)F)c3)C1=O)C2(C)C (centres undefined),> 100 µM,> 100 µM,> 100 µM,–,> 100 µM,> 100 µM,> 100 µM,> 100 µM,> 100 µM,–,> 100 µM,> 100 µM,> 100 µM,> 100 µM,> 100 µM,> 100 µM,> 100 µM,> 100 µM,–
COc1ccc2nccc(SCC(=O)O)c2c1,> 100 µM,> 100 µM,> 100 µM,> 100 µM,> 100 µM,> 100 µM,–,> 100 µM,> 100 µM,> 100 µM,> 100 µM,> 100 µM,> 100 µM,–,> 100 µM,> 100 µM,> 100 µM,–,> 100 µM
O=C1/C(=C/c2ccc(OC(=O)c3ccccc3)cc2)CCC/C1=C\c1ccc(OC(=O)c2ccccc2)cc1,> 100 µM,> 100 µM,> 100 µM,> 100 µM,> 100 µM,> 100 µM,–,> 100 µM,> 100 µM,> 100 µM,> 100 µM,> 100 µM,> 100 µM,–,> 100 µM,> 100 µM,> 100 µM,> 100 µM,> 100 µM
COc1ccc2cc3[nH]c(=O)cc(O)c3cc2c1OC,> 100 µM,> 100 µM,> 100 µM,> 100 µM,> 100 µM,> 100 µM,> 100 µM,–,> 100 µM,–,–,> 100 µM,> 100 µM,–,> 100 µM,> 100 µM,> 100 µM,> 100 µM,–
N#Cc1c(=O)c2ccccc2n2c1[nH]c1ccccc12,> 100 µM,> 100 µM,> 100 µM,–,> 100 µM,> 100 µM,–,> 100 µM,> 100 µM,–,70.4 µM,> 100 µM,> 100 µM,–,> 100 µM,> 100 µM,> 100 µM,> 100 µM,–
Nn1c(CCCCCCCCc2nnc(COc3ccc4ccccc4c3O)n2N)nnc1COc1ccc2ccccc2c1O,41.8 µM,29.3 µM,–,60 µM,> 100 µM,49.4 µM,> 100 µM,76.9 µM,41.6 µM,42 µM,60.7 µM,99.2 µM,> 100 µM,> 100 µM,> 100 µM,> 100 µM,> 100 µM,67.7 µM,–
COc1cc(S(=O)(=O)Nc2nc(-c3ccc(N4C(=O)/C(=C/C=C/c5ccccc5)N=C4c4ccccc4)cc3)cs2)ccc1Cl,> 100 µM,> 100 µM,> 100 µM,> 100 µM,> 100 µM,> 100 µM,> 100 µM,> 100 µM,> 100 µM,> 100 µM,> 100 µM,–,> 100 µM,> 100 µM,> 100 µM,> 100 µM,> 100 µM,–,> 100 µM
CCCCCCCCCCCCN1[C@H]2CCC[C@H]2C(O)[C@@H]2CCC[C@@H]21 (some centres undefined),> 100 µM,> 100 µM,> 100 µM,> 100 µM,> 100 µM,> 100 µM,–,> 100 µM,> 100 µM,–,> 100 µM,> 100 µM,> 100 µM,> 100 µM,> 100 µM,–,> 100 µM,> 100 µM,> 100 µM
O=C(O)C1CCCCC1C(=O)Nn1cnnc1 (centres undefined),–,> 100 µM,> 100 µM,> 100 µM,> 100 µM,> 100 µM,–,> 100 µM,> 100 µM,> 100 µM,> 100 µM,> 100 µM,> 100 µM,> 100 µM,> 100 µM,> 100 µM,> 100 µM,> 100 µM,> 100 µM
COc1ccc(S(=O)(=O)NC(CCC(=O)NN)C(=O)NN)cc1 (centres undefined),> 100 µM,> 100 µM,> 100 µM,> 100 µM,> 100 µM,> 100 µM,> 100 µM,> 100 µM,> 100 µM,> 100 µM,> 100 µM,> 100 µM,> 100 µM,> 100 µM,> 100 µM,> 100 µM,> 100 µM,–,> 100 µM

# From PubChem BioAssay (NCI)
